{"source": "patent US7176224B2", "about": "“Oxazolyl-aryloxyacetic acid derivatives and their use as PPAR agonists” (Eli Lilly and Company, priority 2000, dated 2007)", "system": "Hu apoAI transgenic mice", "assay": "Evaluation of triglyceride and cholesterol levels in hu apoAI transgenic mice", "assay_type": "in vivo", "conditions": "30 mg/kg oral gavage daily for 7 days; serum HDLc FPLC area under the curve, over mice receiving vehicle", "method": "Five to six week old male mice, transgenic for human apoAI [C57B1/6-tgn(apoa1) 1rub, Jackson Laboratory, Bar Harbor, Me.] were housed five per cage (10″×20″8″ with aspen chip bedding) with food (Purina 5001) and water available at all times. After an acclimation period of 2 weeks, animals were individually identified by ear notches, weighed, and assigned to groups based on body weight. Beginning the following morning, mice were dosed daily by oral gavage for 7 days using a 20 gauge, 1½″ curved disposable feeding needle (Popper & Sons). Treatments were test compounds (30 mg/kg), a positive control (fenofibrate, 100 mg/kg) or vehicle [1% carboxymethylcellulose (w/v)/0.25% Tween80 (w/v); 0.2 ml/mouse]. Prior to termination on day 7, mice were weighed and dosed. Three hours after dosing, animals were anesthetized by inhalation of isoflurane (2–4%; Abbott Laboratories, Chicago, Ill.) and blood obtained via cardiac puncture (0.7–1.0 ml). Whole blood was transferred to serum separator tubes (Vacutainer SST), chilled on ice, and permitted to clot. Serum was obtained after centrifugation at 4° C. and frozen until analysis for triglycerides, total cholesterol, compound levels, and serum lipoprotein profile by fast protein liquid chromatography (FPLC) coupled to an inline detection system. After sacrifice by cervical dislocation, the liver, heart and epididymal fat pads were excised and weighed.\nThe animals dosed with vehicle had average triglycerides values of 60–80 mg/dl, which were reduced by the positive control fenofibrate (33–58 mg/dl with a mean reduction of 37%). The animals dosed with vehicle had average total serum cholesterol values of 140–180 mg/dl, which were increased by fenofibrate (190–280 mg/dl, with a mean elevation of 41%). […] increased the amount of HDLc (68–96 v-sec with a mean percent increase of 48%).\nGlucose was measured colorimetrically using commercially purchased reagents (Sigma #315-500). According to the manufacturers, the procedures were modified from published work (McGowan, M. W., Artiss, J. D., Strandbergh, D. R. & Zak, B. Clin Chem, 20:470–5 (1974) and Keston, A. Specific colorimetric enzymatic analytical reagents for glucose. Abstract of papers 129th Meeting ACS, 31C (1956).); and depend on the release of a mole of hydrogen peroxide for each mole of analyte, coupled with a color reaction first described by Trinder (Trinder, P. Determination of glucose in blood using glucose oxidase with an alternative oxygen acceptor. Ann Clin Biochem, 6:24 (1969)). The absorbance of the dye produced is linearly related to the analyte in the sample. The assays were further modified in our laboratory for use in a 96 well format. Standards (Sigma #339-11, Sigma #16-11, and Sigma #CC0534 for glucose, triglycerides and total cholesterol, respectively), quality control plasma (Sigma # A2034), and samples (2 or 5 μl/well) were measured in duplicate using 200 μl of reagent. An additional aliquot of sample, pipetted to a third well and diluted in 200 μl water, provided a blank for each specimen. Plates were incubated at room temperature (18, 15, and 10 minutes for glucose, triglycerides and total cholesterol, respectively) on a plate shaker (DPC Micormix 5) and absorbance read at 500 nm (glucose and total cholesterol) or 540 nm (triglycerides) on a plate reader (Wallac Victor 1420). Sample absorbances were compared to a standard curve (100–800, 10–500, and 100–400 mg/dl for glucose, triglycerides and total cholesterol, respectively). Values for the quality control sample were always within the expected range and the coefficient of variation for samples was below 10%. All samples from an experiment were assayed at the same time to minimize inter-assay variability.\nSerum lipoproteins were separated and cholesterol quantitated with an in-line detection system. Sample was applied to a Superose® 6 HR 10/30 size exclusion column (Amersham Pharmacia Biotech) and eluted with phosphate buffered saline-EDTA at 0.5 ml/min. […]", "data": [{"smiles": "Cc1oc(-c2cccc(-c3ccc(F)cc3)c2)nc1CCOc1ccc(CC(C)(Oc2ccccc2)C(=O)O)cc1", "note": "(stereo not shown) [Example 4, 3-(4-{2-[2-(4′-Fluorobiphenyl-3-yl)-5-methyloxazol-4-yl]ethoxy}phenyl)-2-methyl-2-phenoxypropionic acid]", "values": [{"measurement": "% HDLc Increase", "value": 40.4, "unit": "%"}]}]}
